The text below walks through data of patent US11655246B2, “Aminothiazole compounds as inhibitors of CTPS1” (STEP PHARMA S.A.S., priority 2017, dated 2023).

A value given as a limit tells only on which side of the number the result lay.

The target of this assay is T1, human CTPS1 (Homo sapiens, UniProt P17812).
T1 construct: purchased Proteros biostructures GmbH
T1 sequence (P17812 1-591): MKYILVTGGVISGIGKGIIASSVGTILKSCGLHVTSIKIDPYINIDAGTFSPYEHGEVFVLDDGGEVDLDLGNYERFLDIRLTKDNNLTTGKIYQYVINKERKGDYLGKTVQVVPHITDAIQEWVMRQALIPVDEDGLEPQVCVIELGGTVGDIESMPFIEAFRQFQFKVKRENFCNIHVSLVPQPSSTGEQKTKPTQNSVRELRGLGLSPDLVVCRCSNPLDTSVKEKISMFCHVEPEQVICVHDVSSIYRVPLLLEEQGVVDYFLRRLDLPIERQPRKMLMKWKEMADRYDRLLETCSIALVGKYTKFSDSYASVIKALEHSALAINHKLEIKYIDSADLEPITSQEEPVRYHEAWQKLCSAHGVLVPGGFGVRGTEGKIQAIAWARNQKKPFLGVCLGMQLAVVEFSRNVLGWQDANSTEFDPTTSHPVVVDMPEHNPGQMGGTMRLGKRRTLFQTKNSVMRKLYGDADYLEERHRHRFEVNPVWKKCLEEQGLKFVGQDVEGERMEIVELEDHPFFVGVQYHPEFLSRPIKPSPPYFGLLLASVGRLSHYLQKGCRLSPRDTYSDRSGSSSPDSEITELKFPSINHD
The experiment in a line: Human CTPS1 enzyme inhibition (ADP-Glo Max assay). In kind it is biochemical. Conditions: Table 18, additional potency data, 25° C., read-out: CTPS1 (Human CTPS1 Enzyme Inhibition data grouped by potency range). The essentials: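 ADP-Glo Max luminescence detection of ATP-to-ADP conversion by the enzyme, in 50 mM Tris, 10 mM MgCl2, 0.01% Tween-20, pH 8.0, with 2 mM L-cysteine added fresh. Enzyme preincubated with compound 10 minutes at 25° C. Percentage inhibition calculated per compound concentration.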
Background: ADP-Glo turns the ADP formed in a reaction into a luminescent signal.
For `CCc1cncc(-c2ccc(NC(=O)C(C)(C)c3csc(NS(=O)(=O)C4CC4)n3)c(F)c2)n1` [T356, 2-(2-(cyclopropanesulfonamido)thiazol-4-yl)-N-(4-(6-ethylpyrazin-2-yl)-2-fluorophenyl)-2-methylpropanamide], the IC50 was < 100 nM.

Take `CC(C)Oc1cncc(-c2ccc(NC(=O)C(C)(C)c3csc(NS(=O)(=O)C4CC4)n3)c(F)c2)n1` [T357, 2-(2-(cyclopropanesulfonamido)thiazol-4-yl)-N-(2-fluoro-4-(6-isopropoxypyrazin-2-yl)phenyl)-2-methylpropanamide]: the IC50 is < 100 nM.

Turning to `CCOc1cncc(-c2ccc(NC(=O)C(C)(C)c3nc(NS(=O)(=O)C4CC4)sc3C)c(F)c2)n1` [T358, 2-(2-(cyclopropanesulfonamido)-5-methylthiazol-4-yl)-N-(4-(6-ethoxypyrazin-2-yl)-2-fluorophenyl)-2-methylpropanamide], the IC50 is < 100 nM.

As to `CC(C)c1cc(-c2cncc(Cl)c2)ccc1NC(=O)C(C)(C)c1csc(NS(=O)(=O)C2CC2)n1` [T359, N-(4-(5-chloropyridin-3-yl)-2-isopropylphenyl)-2-(2-(cyclopropanesulfonamido)thiazol-4-yl)-2-methylpropanamide], the IC50 was < 100 nM.

With `CC(C)c1cc(-c2cncc(C#N)c2)ccc1NC(=O)C(C)(C)c1csc(NS(=O)(=O)C2CC2)n1` [T360, N-(4-(5-cyanopyridin-3-yl)-2-isopropylphenyl)-2-(2-(cyclopropanesulfonamido)thiazol-4-yl)-2-methylpropanamide], the IC50 lay within 100 to 1000 nM.

Consider `CC(C)c1cc(-c2cncc(C(F)(F)F)n2)ccc1NC(=O)C(C)(C)c1csc(NS(=O)(=O)C2CC2)n1` [T361, 2-(2-(cyclopropanesulfonamido)thiazol-4-yl)-N-(2-isopropyl-4-(6-(trifluoromethyl)pyrazin-2-yl)phenyl)-2-methylpropanamide], for which the IC50 fell in the range of 100 to 1000 nM.

Turning to `CCOc1cncc(-c2ccc(NC(=O)C(C)(C)c3csc(NS(=O)(=O)C4CC4)n3)c(C(C)C)c2)n1` [T362, 2-(2-(cyclopropanesulfonamido)thiazol-4-yl)-N-(4-(6-ethoxypyrazin-2-yl)-2-isopropylphenyl)-2-methylpropanamide], the IC50 was < 100 nM.

With `Cc1c(NC(=O)C(C)(C)c2csc(NS(=O)(=O)C3CC3)n2)ccc(-c2cncc(Cl)c2)c1F` [T363, N-(4-(5-chloropyridin-3-yl)-3-fluoro-2-methylphenyl)-2-(2-(cyclopropanesulfonamido)thiazol-4-yl)-2-methylpropanamide], the IC50 was < 100 nM.

As for `Cc1cc(-c2cncc(Cl)c2)c(F)cc1NC(=O)C(C)(C)c1csc(NS(=O)(=O)C2CC2)n1` [T364, N-(4-(5-chloropyridin-3-yl)-5-fluoro-2-methylphenyl)-2-(2-(cyclopropanesulfonamido)thiazol-4-yl)-2-methylpropanamide], the IC50 lay in the range of 100 to 1000 nM.

Turning to `Cc1c(NC(=O)C(C)(C)c2csc(NS(=O)(=O)C3CC3)n2)ccc(-c2cncc(Cl)c2)c1C` [T365, N-(4-(5-chloropyridin-3-yl)-2,3-dimethylphenyl)-2-(2-(cyclopropanesulfonamido)thiazol-4-yl)-2-methylpropanamide], the IC50 is < 100 nM.

`Cc1cc(-c2cncc(Cl)c2)c(C)cc1NC(=O)C(C)(C)c1csc(NS(=O)(=O)C2CC2)n1` [T366, N-(4-(5-chloropyridin-3-yl)-2,5-dimethylphenyl)-2-(2-(cyclopropanesulfonamido)thiazol-4-yl)-2-methylpropanamide]: the IC50 is 100 to 1000 nM.

In the case of `Cc1c(NC(=O)C(C)(C)c2csc(NS(=O)(=O)C3CC3)n2)ccc(-c2cncc(C#N)c2)c1F` [T367, N-(4-(5-cyanopyridin-3-yl)-3-fluoro-2-methylphenyl)-2-(2-(cyclopropanesulfonamido)thiazol-4-yl)-2-methylpropanamide], the IC50 was < 100 nM.

`Cc1cc(-c2cncc(C(F)(F)F)n2)ccc1NC(=O)C(C)(C)c1csc(NS(=O)(=O)C2CC2)n1` [T368, 2-(2-(cyclopropanesulfonamido)thiazol-4-yl)-2-methyl-N-(2-methyl-4-(6-(trifluoromethyl)pyrazin-2-yl)phenyl)propanamide]: the IC50 is < 100 nM.

Consider `COc1cc(-c2cncc(Cl)c2)c(F)cc1NC(=O)C(C)(C)c1csc(NS(=O)(=O)C2CC2)n1` [T369, N-(4-(5-chloropyridin-3-yl)-5-fluoro-2-methoxyphenyl)-2-(2-(cyclopropanesulfonamido)thiazol-4-yl)-2-methylpropanamide], for which the IC50 fell in the range of 100 to 1000 nM.

On to `CCOc1cncc(-c2ccc(NC(=O)C(C)(C)c3csc(NS(=O)(=O)C4CC4)n3)cc2C)n1` [T371, 2-(2-(cyclopropanesulfonamido)thiazol-4-yl)-N-(4-(6-ethoxypyrazin-2-yl)-3-methylphenyl)-2-methylpropanamide], for which the IC50 was < 100 nM.

`CCOc1cc(NC(=O)C(C)(C)c2csc(NS(=O)(=O)C3CC3)n2)ccc1-c1cncc(Cl)c1` [T372, N-(4-(5-chloropyridin-3-yl)-3-ethoxyphenyl)-2-(2-(cyclopropanesulfonamido)thiazol-4-yl)-2-methylpropanamide]: the IC50 was 100 to 1000 nM.

For `O=C(Nc1ccc(-c2cncc(Cl)c2)cc1)C1(c2csc(NS(=O)(=O)C3CC3)n2)CC1` [T373, N-(4-(5-chloropyridin-3-yl)phenyl)-1-(2-(cyclopropanesulfonamido)thiazol-4-yl)cyclopropane-1-carboxamide], the IC50 was < 100 nM.

As for `Cc1sc(NS(=O)(=O)C2CC2)nc1C(C)(C)C(=O)Nc1ccc(-c2cncc(C#N)c2)cc1` [T374, N-(4-(5-cyanopyridin-3-yl)phenyl)-2-(2-(cyclopropanesulfonamido)-5-methylthiazol-4-yl)-2-methylpropanamide], the IC50 lay in the range of 1000 to 10000 nM.

`COC(C)(C)c1cncc(-c2ccc(NC(=O)C(C)(C)c3csc(NS(=O)(=O)C4CC4)n3)cc2)n1` [T375, 2-(2-(cyclopropanesulfonamido)thiazol-4-yl)-N-(4-(6-(2-methoxypropan-2-yl)pyrazin-2-yl)phenyl)-2-methylpropanamide]: the IC50 fell in the range of 100 to 1000 nM.

On to `CCOc1cncc(-c2ccc(NC(=O)C(C)(C)c3nc(NS(=O)(=O)C4CC4)sc3Cl)cc2)n1` [T376, 2-(5-chloro-2-(cyclopropanesulfonamido)thiazol-4-yl)-N-(4-(6-ethoxypyrazin-2-yl)phenyl)-2-methylpropanamide], for which the IC50 was in the range of 100 to 1000 nM.

Regarding `CCOc1cncc(-c2ccc(NC(=O)C(C)(C)c3nc(NS(=O)(=O)C4CC4)sc3OC)cc2)n1` [T377, 2-(2-(cyclopropanesulfonamido)-5-methoxythiazol-4-yl)-N-(4-(6-ethoxypyrazin-2-yl)phenyl)-2-methylpropanamide], the IC50 was in the range of 100 to 1000 nM.

In the case of `CC(C)(C(=O)Nc1ccc(-c2cncc(OCC3CCCC3)n2)cc1)c1csc(NS(=O)(=O)C2CC2)n1` [T378, N-(4-(6-(cyclopentylmethoxy)pyrazin-2-yl)phenyl)-2-(2-(cyclopropanesulfonamido)thiazol-4-yl)-2-methylpropanamide], the IC50 was in the range of 1000 to 10000 nM.

Consider `CC(C)(C(=O)Nc1ccc(-c2cncc(O)n2)cc1)c1csc(NS(=O)(=O)C2CC2)n1` [T379, 2-(2-(cyclopropanesulfonamido)thiazol-4-yl)-N-(4-(6-hydroxypyrazin-2-yl)phenyl)-2-methylpropanamide], for which the IC50 lay in the range of 1000 to 10000 nM.

`CCS(=O)(=O)Nc1nc(C(C)(C)C(=O)Nc2ccc(-c3cncc(C(F)(F)F)c3)cn2)cs1` [T380, 2-(2-(ethylsulfonamido)thiazol-4-yl)-2-methyl-N-(5′-(trifluoromethyl)-[3,3′-bipyridin]-6-yl)propanamide]: the IC50 is < 100 nM.

With `CCS(=O)(=O)Nc1nc(C(C)(C)C(=O)Nc2ccc(-c3cncc(C(F)(F)F)n3)cn2)cs1` [T381, 2-(2-(ethylsulfonamido)thiazol-4-yl)-2-methyl-N-(5-(6-(trifluoromethyl)pyrazin-2-yl)pyridin-2-yl)propanamide], the IC50 was < 100 nM.

As for `CCOc1cncc(-c2ccc(NC(=O)C(C)(C)c3csc(NS(=O)(=O)CC)n3)nc2)n1` [T382, N-(5-(6-ethoxypyrazin-2-yl)pyridin-2-yl)-2-(2-(ethylsulfonamido)thiazol-4-yl)-2-methylpropanamide], the IC50 is < 100 nM.

On to `CCS(=O)(=O)Nc1nc(C(C)(C)C(=O)Nc2ccc(-c3cncc(OC(C)C)n3)cc2F)cs1` [T383, 2-(2-(ethylsulfonamido)thiazol-4-yl)-N-(2-fluoro-4-(6-isopropoxypyrazin-2-yl)phenyl)-2-methylpropanamide], for which the IC50 is < 100 nM.

As to `CCS(=O)(=O)Nc1nc(C(C)(C)C(=O)Nc2ccc(-c3cncc(C#N)c3)cc2)cs1` [T384, N-(4-(5-cyanopyridin-3-yl)phenyl)-2-(2-(ethylsulfonamido)thiazol-4-yl)-2-methylpropanamide], the IC50 fell in the range of 100 to 1000 nM.

Consider `CCS(=O)(=O)Nc1nc(C(C)(C)C(=O)Nc2ccc(-c3cncc(F)c3)cc2)cs1` [T385, 2-(2-(ethylsulfonamido)thiazol-4-yl)-N-(4-(5-fluoropyridin-3-yl)phenyl)-2-methylpropanamide], for which the IC50 was < 100 nM.
